Test results published in US20260022142A1, “MACROCYCLIC IMMUNOMODULATORS” (Bristol-Myers Squibb Company, priority 2022, published 2026).
Bridge positions count the residues as written; N and C are the ends. Square brackets hold non-standard residues; d marks the D form. Peptide text beside a SMILES is read from it. * marks the point of attachment. ξ: configuration not given here. Phe(4-COOH) = N[C@@H](Cc1ccc(C(=O)O)cc1)C(=O)O; Bip = N[C@@H](Cc1ccc(-c2ccccc2)cc1)C(=O)O; hArg = N=C(N)NCCCC[C@H](N)C(=O)O; 4Pal = N[C@@H](Cc1ccncc1)C(=O)O; 3Thi = N[C@@H](Cc1ccsc1)C(=O)O; Cha = N[C@@H](CC1CCCCC1)C(=O)O; Cit = NC(=O)NCCC[C@H](N)C(=O)O; Thr(3ξ) = CC(O)[C@H](N)C(=O)O; Carboxymethyl = O=C(O)C*; Orn = NCCC[C@H](N)C(=O)O; Aun = NCCCCCCCCCCC(=O)O; Dab = NCC[C@H](N)C(=O)O; Dap = NC[C@H](N)C(=O)O; AEEA = NCCOCCOCC(=O)O

These molecules were tested against T1, PD-1/PD-L1 interaction (PE-labeled human PD-L1-Ig binding to Jurkat cell line over-expressing human PD-1) (Homo sapiens, UniProt Q15116) (assay: Jurkat-PD-1 Cell Binding High-Content Screening Assay (CBA)). Conditions: Jurkat cell line over-expressing human PD-1; PE-labeled PD-L1-Ig 20 nM final; read-out: Jurkat hPD1-PDL1 IC50.
T1 construct: expressed in transfected cells; host or cells: Jurkat
T1 sequence (Q15116 25-288): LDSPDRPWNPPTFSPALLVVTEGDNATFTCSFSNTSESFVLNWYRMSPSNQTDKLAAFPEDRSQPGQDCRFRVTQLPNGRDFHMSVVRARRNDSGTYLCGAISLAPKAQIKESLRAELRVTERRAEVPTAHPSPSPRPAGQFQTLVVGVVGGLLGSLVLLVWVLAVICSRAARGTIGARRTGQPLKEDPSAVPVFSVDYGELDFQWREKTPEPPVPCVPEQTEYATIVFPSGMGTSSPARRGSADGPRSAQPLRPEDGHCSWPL
Assay type: cell-based
In short: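 Jurkat-hPD-1 cells, DMEM/10% FCS; cpd 2 h 37° C; PE-PD-L1-Ig 20 nM final, 1 h; 4% PFA fix + Hoechst 33342, 3× dPBS wash; high-content imaging read-out.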

IC50 [nM] | Structure (SMILES)
7.3 | CC(C)C[C@H]1NC(=O)[C@H](CCCN)NC(=O)[C@H](C(C)C)NC(=O)[C@H](Cc2ccc(-c3ccccc3)cc2)NC(=O)[C@H](C(C)C)NC(=O)[C@H](Cc2c[nH]c3ccccc23)NC(=O)[C@H](CC(=O)O)NC(=O)[C@H](Cc2c[nH]cn2)NC(=O)[C@H](CCCCNC(=N)N)NC(=O)CSC[C@@H](C(=O)NCC(=O)NCCOCCOCC(=O)N[C@@H](CCCN)C(=O)NCCCCCCCCCCC(=O)O)NC(=O)[C@H](CO)NC(=O)[C@H](C(C)C)NC(=O)[C@H](CC2CCCCC2)NC(=O)[C@H](CCN)NC1=O [Compound 3200] ({CH2CO}-[hArg]HDWV[Bip]V[Orn][dL][Dab][Cha]VSCG[AEEA][Orn][Aun]-OH; thioether N-14)
19.3 | CC(C)C[C@H]1NC(=O)[C@H](CCCN)NC(=O)[C@H](C(C)C)NC(=O)[C@H](Cc2ccc(-c3ccccc3)cc2)NC(=O)[C@H](C(C)C)NC(=O)[C@H](Cc2c[nH]c3ccccc23)NC(=O)[C@H](CC(=O)O)NC(=O)[C@H](Cc2ccc(OCC(=O)O)cc2)NC(=O)[C@H](CCCCNC(=N)N)NC(=O)CSC[C@@H](C(=O)NCC(=O)NCCOCCOCC(=O)N[C@@H](CCCN)C(=O)NCCCCCCCCCCC(=O)O)NC(=O)[C@H](CCN)NC(=O)[C@H](C(C)C)NC(=O)[C@H](CC2CCCCC2)NC(=O)[C@H](CC(N)=O)NC1=O [Compound 3202] ({CH2CO}-[hArg]Y(Carboxymethyl)DWV[Bip]V[Orn][dL]N[Cha]V[Dab]CG[AEEA][Orn][Aun]-OH; thioether N-14)
28.4 | CC(C)C[C@H]1NC(=O)[C@H](CCCN)NC(=O)[C@H](C(C)C)NC(=O)[C@H](Cc2ccc(-c3ccccc3)cc2)NC(=O)[C@H](C(C)C)NC(=O)[C@H](Cc2c[nH]c3ccccc23)NC(=O)[C@H](CC(=O)O)NC(=O)[C@H](Cc2ccc(OCC(=O)O)cc2)NC(=O)[C@H](CCCCNC(=N)N)NC(=O)CSC[C@@H](C(=O)NCC(=O)NCCOCCOCC(=O)N[C@@H](CCCN)C(=O)NCCCCCCCCCCC(=O)O)NC(=O)[C@H](CCCN)NC(=O)[C@H](C(C)C)NC(=O)[C@H](CC2CCCCC2)NC(=O)[C@H](CC(N)=O)NC1=O [Compound 3203] ({CH2CO}-[hArg]Y(Carboxymethyl)DWV[Bip]V[Orn][dL]N[Cha]V[Orn]CG[AEEA][Orn][Aun]-OH; thioether N-14)
12.7 | CC(C)C[C@H]1NC(=O)[C@H](CCCN)NC(=O)[C@H](C(C)C)NC(=O)[C@H](Cc2ccc(-c3ccccc3)cc2)NC(=O)[C@H](C(C)C)NC(=O)[C@H](Cc2c[nH]c3ccccc23)NC(=O)[C@H](CC(=O)O)NC(=O)[C@H](Cc2ccc(OCC(=O)O)cc2)NC(=O)[C@H](CCCCNC(=N)N)NC(=O)CSC[C@@H](C(=O)NCC(=O)NCCOCCOCC(=O)N[C@@H](CCCN)C(=O)NCCCCCCCCCCC(=O)O)NC(=O)[C@H](CCCCN)NC(=O)[C@H](C(C)C)NC(=O)[C@H](CC2CCCCC2)NC(=O)[C@H](CC(N)=O)NC1=O [Compound 3204] ({CH2CO}-[hArg]Y(Carboxymethyl)DWV[Bip]V[Orn][dL]N[Cha]VKCG[AEEA][Orn][Aun]-OH; thioether N-14)
12.4 | CC(C)C[C@H]1NC(=O)[C@H](CCCN)NC(=O)[C@H](C(C)C)NC(=O)[C@H](Cc2ccc(-c3ccccc3)cc2)NC(=O)[C@H](C(C)C)NC(=O)[C@H](Cc2c[nH]c3ccccc23)NC(=O)[C@H](CC(=O)O)NC(=O)[C@H](Cc2ccc(OCC(=O)O)cc2)NC(=O)[C@H](Cc2ccc(OCC(=O)O)cc2)NC(=O)CSC[C@@H](C(=O)NCC(=O)NCCOCCOCC(=O)N[C@@H](CCCN)C(=O)NCCCCCCCCCCC(=O)O)NC(=O)[C@H](CCCN)NC(=O)[C@H](C(C)C)NC(=O)[C@H](CC2CCCCC2)NC(=O)[C@H](CC(N)=O)NC1=O [Compound 3205] ({CH2CO}-Y(Carboxymethyl)Y(Carboxymethyl)DWV[Bip]V[Orn][dL]N[Cha]V[Orn]CG[AEEA][Orn][Aun]-OH; thioether N-14)
24.5 | CC(C)C[C@H]1NC(=O)[C@H](CCCN)NC(=O)[C@H](C(C)C)NC(=O)[C@H](Cc2ccc(-c3ccccc3)cc2)NC(=O)[C@H](C(C)C)NC(=O)[C@H](Cc2c[nH]c3ccccc23)NC(=O)[C@H](CC(=O)O)NC(=O)[C@H](Cc2ccc(C(=O)O)cc2)NC(=O)[C@H](Cc2ccc(OCC(=O)O)cc2)NC(=O)CSC[C@@H](C(=O)NCC(=O)NCCOCCOCC(=O)N[C@@H](CCCN)C(=O)NCCCCCCCCCCC(=O)O)NC(=O)[C@H](CCCN)NC(=O)[C@H](C(C)C)NC(=O)[C@H](CC2CCCCC2)NC(=O)[C@H](CC(N)=O)NC1=O [Compound 3206] ({CH2CO}-Y(Carboxymethyl)[Phe(4-COOH)]DWV[Bip]V[Orn][dL]N[Cha]V[Orn]CG[AEEA][Orn][Aun]-OH; thioether N-14)
17.4 | CC(C)C[C@H]1NC(=O)[C@H](CCCN)NC(=O)[C@H](C(C)C)NC(=O)[C@H](Cc2ccc(-c3ccccc3)cc2)NC(=O)[C@H](C(C)C)NC(=O)[C@H](Cc2c[nH]c3ccccc23)NC(=O)[C@H](CC(=O)O)NC(=O)[C@H](Cc2ccc(OCC(=O)O)cc2)NC(=O)[C@H](Cc2ccncc2)NC(=O)CSC[C@@H](C(=O)NCC(=O)NCCOCCOCC(=O)N[C@@H](CCCN)C(=O)NCCCCCCCCCCC(=O)O)NC(=O)[C@H](CCCN)NC(=O)[C@H](C(C)C)NC(=O)[C@H](CC2CCCCC2)NC(=O)[C@H](CC(N)=O)NC1=O [Compound 3207] ({CH2CO}-[4Pal]Y(Carboxymethyl)DWV[Bip]V[Orn][dL]N[Cha]V[Orn]CG[AEEA][Orn][Aun]-OH; thioether N-14)
603 | CC(C)C[C@H]1NC(=O)[C@H](CCCNC(N)=O)NC(=O)[C@H](C(C)C)NC(=O)[C@H](Cc2ccc(-c3ccccc3)cc2)NC(=O)[C@H](C(C)C)NC(=O)[C@H](Cc2c[nH]c3ccccc23)NC(=O)[C@H](CC(=O)O)NC(=O)[C@H](Cc2ccc(OCC(=O)O)cc2)NC(=O)[C@H](Cc2ccsc2)NC(=O)CSC[C@@H](C(=O)NCCOCCOCC(=O)N[C@@H](CCCN)C(=O)NCCCCCCCCCCC(=O)O)NC(=O)[C@H](C(C)O)NC(=O)[C@H](C(C)C)NC(=O)[C@H](CC2CCCCC2)NC(=O)[C@H](CCN)NC1=O (stereo partly drawn) [Compound 3208] ({CH2CO}-[3Thi]Y(Carboxymethyl)DWV[Bip]V[Cit][dL][Dab][Cha]V[Thr(3ξ)]C[AEEA][Orn][Aun]-OH; thioether N-14)
17.1 | CC(C)C[C@H]1NC(=O)[C@H](CN)NC(=O)[C@H](C(C)C)NC(=O)[C@H](Cc2ccc(-c3ccccc3)cc2)NC(=O)[C@H](C(C)C)NC(=O)[C@H](Cc2c[nH]c3ccccc23)NC(=O)[C@H](CC(=O)O)NC(=O)[C@H](Cc2ccc(OCC(=O)O)cc2)NC(=O)[C@H](Cc2ccsc2)NC(=O)CSC[C@@H](C(=O)NCCOCCOCC(=O)N[C@@H](CCCN)C(=O)NCCCCCCCCCCC(=O)O)NC(=O)[C@H](C(C)O)NC(=O)[C@H](C(C)C)NC(=O)[C@H](CC2CCCCC2)NC(=O)[C@H](CCN)NC1=O (stereo partly drawn) [Compound 3209] ({CH2CO}-[3Thi]Y(Carboxymethyl)DWV[Bip]V[Dap][dL][Dab][Cha]V[Thr(3ξ)]C[AEEA][Orn][Aun]-OH; thioether N-14)
8 | CC(C)C[C@H]1NC(=O)[C@H](CCN)NC(=O)[C@H](C(C)C)NC(=O)[C@H](Cc2ccc(-c3ccccc3)cc2)NC(=O)[C@H](C(C)C)NC(=O)[C@H](Cc2c[nH]c3ccccc23)NC(=O)[C@H](CC(=O)O)NC(=O)[C@H](Cc2ccc(OCC(=O)O)cc2)NC(=O)[C@H](Cc2ccsc2)NC(=O)CSC[C@@H](C(=O)NCCOCCOCC(=O)N[C@@H](CCCN)C(=O)NCCCCCCCCCCC(=O)O)NC(=O)[C@H](C(C)O)NC(=O)[C@H](C(C)C)NC(=O)[C@H](CC2CCCCC2)NC(=O)[C@H](CCN)NC1=O (stereo partly drawn) [Compound 3210] ({CH2CO}-[3Thi]Y(Carboxymethyl)DWV[Bip]V[Dab][dL][Dab][Cha]V[Thr(3ξ)]C[AEEA][Orn][Aun]-OH; thioether N-14)
18.3 | CC(C)C[C@H]1NC(=O)[C@H](CCCN)NC(=O)[C@H](C(C)C)NC(=O)[C@H](Cc2ccc(-c3ccccc3)cc2)NC(=O)[C@H](C(C)C)NC(=O)[C@H](Cc2c[nH]c3ccccc23)NC(=O)[C@H](CC(=O)O)NC(=O)[C@H](Cc2ccc(OCC(=O)O)cc2)NC(=O)[C@H](Cc2ccsc2)NC(=O)CSC[C@@H](C(=O)NCCOCCOCC(=O)N[C@@H](CCCN)C(=O)NCCCCCCCCCCC(=O)O)NC(=O)[C@H](C(C)O)NC(=O)[C@H](C(C)C)NC(=O)[C@H](CC2CCCCC2)NC(=O)[C@H](CCN)NC1=O (stereo partly drawn) [Compound 3211] ({CH2CO}-[3Thi]Y(Carboxymethyl)DWV[Bip]V[Orn][dL][Dab][Cha]V[Thr(3ξ)]C[AEEA][Orn][Aun]-OH; thioether N-14)
13.7 | CC(C)C[C@H]1NC(=O)[C@H](CCN)NC(=O)[C@H](C(C)C)NC(=O)[C@H](Cc2ccc(-c3ccccc3)cc2)NC(=O)[C@H](C(C)C)NC(=O)[C@H](Cc2c[nH]c3ccccc23)NC(=O)[C@H](CC(=O)O)NC(=O)[C@H](Cc2ccc(OCC(=O)O)cc2)NC(=O)[C@H](CCCCNC(=N)N)NC(=O)CSC[C@@H](C(=O)NCCOCCOCC(=O)N[C@@H](CCCN)C(=O)NCCCCCCCCCCC(=O)O)NC(=O)[C@H](C(C)O)NC(=O)[C@H](C(C)C)NC(=O)[C@H](CC2CCCCC2)NC(=O)[C@H](CCN)NC1=O (stereo partly drawn) [Compound 3212] ({CH2CO}-[hArg]Y(Carboxymethyl)DWV[Bip]V[Dab][dL][Dab][Cha]V[Thr(3ξ)]C[AEEA][Orn][Aun]-OH; thioether N-14)
13.5 | CC(C)C[C@H]1NC(=O)[C@H](CCCN)NC(=O)[C@H](C(C)C)NC(=O)[C@H](Cc2ccc(-c3ccccc3)cc2)NC(=O)[C@H](C(C)C)NC(=O)[C@H](Cc2c[nH]c3ccccc23)NC(=O)[C@H](CC(=O)O)NC(=O)[C@H](Cc2ccc(OCC(=O)O)cc2)NC(=O)[C@H](CCCCNC(=N)N)NC(=O)CSC[C@@H](C(=O)N[C@@H](CCN)C(=O)NCCOCCOCC(=O)NCCCCCCCCCCC(=O)O)NC(=O)[C@H](CCCNC(N)=O)NC(=O)[C@H](C(C)C)NC(=O)[C@H](CC2CCCCC2)NC(=O)[C@H](CC(N)=O)NC1=O [Compound 3213] ({CH2CO}-[hArg]Y(Carboxymethyl)DWV[Bip]V[Orn][dL]N[Cha]V[Cit]C[Dab][AEEA][Aun]-OH; thioether N-14)
